{"source": "paper PMC10289903", "about": "(Investigational New Drugs, 2023)", "key": {"[1]": {"system": "locally advanced or metastatic solid tumors", "assay": "Preliminary antitumor activity (ORR, DCR, SD, PFS; RECIST v1.1)", "assay_type": "in vivo, human", "settings": "for Duration of response: confirmed partial response", "protocol": "Preliminary efficacy was assessed using objective response rate (ORR) in patients with measurable disease, disease control rate (DCR) and progression-free survival (PFS), all in accordance with RECIST v1.1 [17]. Responses for ORR required confirmation after at least 4 weeks.\nAfter initiation of treatment, tumor burden was assessed at baseline and every 8 weeks (± 1 week) for the qd 5/9 dosing, and every 9 weeks (± 1 week) for the qd 5/2 treatment schedule, respectively, using computed tomography or magnetic resonance imaging of the chest and abdomen or pelvis.\nThe per protocol analysis set was defined as a subset of the full analysis set, excluding subjects having an important protocol deviation, to be used for analyses of efficacy endpoints if appropriate."}, "[2]": {"system": "recurrent uterine serous carcinoma", "settings": "300 mg qd days 1–5 and 8–12 of a 21-day cycle, monotherapy, cited from earlier work"}, "[3]": {"system": "recurrent ovarian cancer with progressive disease while receiving PARPi", "settings": "cited from earlier work"}, "[4]": {"system": "patients with locally advanced or metastatic solid tumors", "description": "This was a Phase Ib, multicenter, open-label, dose-finding clinical trial (NCT02610075). […] Three types of treatment schedules were investigated: cohorts bid 1, bid 2, qd 1.1, qd 2.1 and qd 3.1 received bid or qd treatment on a 5/9 schedule (5 days on treatment, followed by 9 days off) on a 14-day cycle. Cohorts qd 1.2, qd 2.2, and qd 3.2 received treatment on a 5/2 schedule (5 days on followed by 2 days off for 2 of 3 weeks) in a 21-day cycle. Cohorts qd 2.3 and qd 3.3 received treatment on a weekly 5/2 schedule in a 21-day cycle (Table 1). The highest dose level(s) at which less than one-third of evaluable patients (none of 3 patients or 1 of 6 patients) experienced a dose-limiting toxicity (DLT) was declared the MTD.\nDLTs were evaluated during the first 28 days (5/9 schedule) or the first 21 days (5/2 schedule) of treatment."}, "[5]": {"system": "platinum-resistant ovarian cancer", "settings": "adavosertib with carboplatin; cited from earlier work"}, "[6]": {"system": "platinum-resistant or platinum-refractory recurrent ovarian cancer", "settings": "adavosertib 175 mg qd days 1, 2, 8, 9, 15, 16 of a 28-day cycle with gemcitabine; 95% CI 3.6–6.4; cited from earlier work"}, "[7]": {"settings": "human, in vivo", "quoted_text": "Analyses were performed for the bid dosing schedules and RP2D only.\nWater was restricted from 1 h pre-dose until 1 h post-dose, except for the 240 mL of water administered with treatment.\nNatural log-transformed AUC and Cmax were compared between fed/fasted conditions using a mixed effects analysis of variance model, which was fitted separately for each assessed dose. Estimates of the mean difference between treatments and corresponding 90% CI were calculated using a linear mixed effects model with a fixed effect for treatment (fed versus fasted) and a random effect for patients. Back transformed geometric means and 95% CIs were estimated for each condition."}, "[8]": {"settings": "qd 2.3: 250 mg qd 5/2 weekly (n=10)"}, "[9]": {"settings": "qd 3.3: 300 mg 5/2 weekly (n=2)"}}, "note": "Where two headings read alike, the source gives them in different places.", "data": [{"smiles": "C=CCn1c(=O)c2cnc(Nc3ccc(N4CCN(C)CC4)cc3)nc2n1-c1cccc(C(C)(C)O)n1", "note": "[adavosertib, Adavosertib]", "values": [{"measurement": "Duration of response", "setting": "[1]; 1 patient with anal carcinoma, qd 1.2 cohort", "value": 6.9, "unit": "months"}, {"measurement": "Duration of response", "setting": "[1]; 1 patient with thymoma, bid 2 cohort", "value": 3.7, "unit": "months"}, {"measurement": "DCR, CP + PR + SD/n (%)", "setting": "[1]; Total (N=62)", "value": "48.4 CP + PR + SD/n (%)"}, {"measurement": "Median PFS, months (95% CI)", "setting": "[1]; Total (N=62)", "value": "2.7 (2.0–3.8) months"}, {"measurement": "ORR, CP + PR/n (%)", "setting": "[1]; Total, 58 patients with measurable disease at baseline", "value": "3.4 CP + PR/n (%)"}, {"measurement": "Patients with confirmed (or unconfirmed) complete responses", "setting": "[1]; all cohorts", "value": "None"}, {"measurement": "Patients alive and progression-free at data cutoff", "setting": "[1]; all cohorts (N=62)", "value": "14 (22.6%) n (%)"}, {"measurement": "Patients who had experienced a PFS event at data cutoff", "setting": "[1]; all cohorts (N=62)", "value": "47 (75.8%) n (%)"}, {"measurement": "DCR, CP + PR + SD/n (%)", "setting": "[1]; bid 2: 150 mg bid 5/9 (n=6)", "value": "2 (33.3) CP + PR + SD/n (%)"}, {"measurement": "Median PFS, months (95% CI)", "setting": "[1]; bid 2: 150 mg bid 5/9 (n=6)", "value": "1.9 (1.0–NC) months"}, {"measurement": "Patients progression-free at 6 months after first dose", "setting": "[1]; of 62 patients, 95% CI 10.0–32.2", "value": 19.8, "unit": "%"}, {"measurement": "DCR, CP + PR + SD/n (%)", "setting": "[1]; qd 1.1: 200 mg qd 5/9 (n=5)", "value": "2 (40.0) CP + PR + SD/n (%)"}, {"measurement": "Median PFS, months (95% CI)", "setting": "[1]; qd 1.1: 200 mg qd 5/9 (n=5)", "value": "2.0 (0.6–NC) months"}, {"measurement": "ORR, CP + PR/n (%)", "setting": "[1]; qd 1.1: 200 mg qd 5/9 (n=5)", "value": "0 CP + PR/n (%)"}, {"measurement": "DCR, CP + PR + SD/n (%)", "setting": "[1]; qd 1.2: 200 mg qd 5/2 (n=6)", "value": "2 (33.3) CP + PR + SD/n (%)"}, {"measurement": "Median PFS, months (95% CI)", "setting": "[1]; qd 1.2: 200 mg qd 5/2 (n=6)", "value": "2.7 (1.2–9.0) months"}, {"measurement": "DCR, CP + PR + SD/n (%)", "setting": "[1]; qd 2.1: 250 mg qd 5/9 (n=4)", "value": "1 (25.0) CP + PR + SD/n (%)"}, {"measurement": "Median PFS, months (95% CI)", "setting": "[1]; qd 2.1: 250 mg qd 5/9 (n=4)", "value": "1.9 (1.8–4.1) months"}, {"measurement": "ORR, CP + PR/n (%)", "setting": "[1]; qd 2.1: 250 mg qd 5/9 (n=4)", "value": "0 CP + PR/n (%)"}, {"measurement": "DCR, CP + PR + SD/n (%)", "setting": "[1]; qd 2.2: 250 mg qd 5/2 (n=3)", "value": "2 (66.7) CP + PR + SD/n (%)"}, {"measurement": "Median PFS, months (95% CI)", "setting": "[1]; qd 2.2: 250 mg qd 5/2 (n=3)", "value": "3.7 (1.2–11.0) months"}, {"measurement": "ORR, CP + PR/n (%)", "setting": "[1]; qd 2.2: 250 mg qd 5/2 (n=3)", "value": "0 CP + PR/n (%)"}, {"measurement": "DCR, CP + PR + SD/n (%)", "setting": "[1]; [8]", "value": "3 (30.0) CP + PR + SD/n (%)"}, {"measurement": "Median PFS, months (95% CI)", "setting": "[1]; [8]", "value": "2.1 (0.6–4.1) months"}, {"measurement": "ORR, CP + PR/n (%)", "setting": "[1]; [8]", "value": "0 CP + PR/n (%)"}, {"measurement": "DCR, CP + PR + SD/n (%)", "setting": "[1]; qd 3.1: 300 mg qd 5/9 (n=4)", "value": "3 (75.0) CP + PR + SD/n (%)"}, {"measurement": "Median PFS, months (95% CI)", "setting": "[1]; qd 3.1: 300 mg qd 5/9 (n=4)", "value": "7.6 (2.7–9.3) months"}, {"measurement": "ORR, CP + PR/n (%)", "setting": "[1]; qd 3.1: 300 mg qd 5/9 (n=4)", "value": "0 CP + PR/n (%)"}, {"measurement": "DCR, CP + PR + SD/n (%)", "setting": "[1]; qd 3.2: 300 mg qd 5/2 (n=16)", "value": "11 (68.8) CP + PR + SD/n (%)"}, {"measurement": "Median PFS, months (95% CI)", "setting": "[1]; qd 3.2: 300 mg qd 5/2 (n=16)", "value": "3.2 (2.1–5.0) months"}, {"measurement": "ORR, CP + PR/n (%)", "setting": "[1]; qd 3.2: 300 mg qd 5/2 (n=16)", "value": "0 CP + PR/n (%)"}, {"measurement": "DCR, CP + PR + SD/n (%)", "setting": "[1]; [9]", "value": "0 CP + PR + SD/n (%)"}, {"measurement": "Median PFS, months (95% CI)", "setting": "[1]; [9]", "value": "2.6 (NC–NC) months"}, {"measurement": "ORR, CP + PR/n (%)", "setting": "[1]; [9]", "value": "0 CP + PR/n (%)"}, {"measurement": "ORR", "setting": "[2]; 95% CI 15.1–47.5", "value": 29.4, "unit": "%"}, {"measurement": "Median PFS", "setting": "[2]", "value": 6.1, "unit": "months"}, {"measurement": "ORR", "setting": "[3]; adavosertib alone, 90% CI 12–38", "value": 23, "unit": "%"}, {"measurement": "ORR", "setting": "[3]; combination therapy with PARP inhibitor, 90% CI 16–44", "value": 29, "unit": "%"}, {"measurement": "Maximum tolerated dose (MTD)", "setting": "[4]; bid 5/9 schedule (cohort bid 1)", "value": 125, "unit": "mg"}, {"measurement": "DLT nausea, occurrences", "setting": "[4]; human, in vivo", "value": 3, "unit": "n"}, {"measurement": "DLT thrombocytopenia, occurrences", "setting": "[4]; human, in vivo", "value": 3, "unit": "n"}, {"measurement": "Number of DLTs reported", "setting": "[4]; human, in vivo", "value": 12}, {"measurement": "Recommended Phase II dose (RP2D)", "setting": "[4]; human, in vivo, 21 days", "value": 300, "unit": "mg"}, {"measurement": "All other DLTs (dehydration, neutropenia, weight decrease, pneumonia, diarrhea, vomiting), occurrences each", "setting": "[4]; in vivo", "value": "once"}, {"measurement": "Maximum tolerated dose (MTD)", "setting": "[4]; qd 5/2 for 2 of 3 weeks (cohort qd 3.2)", "value": 300, "unit": "mg"}, {"measurement": "Maximum tolerated dose (MTD)", "setting": "[4]; qd 5/9 schedule (cohort qd 3.1)", "value": 300, "unit": "mg"}, {"measurement": "Response rate", "setting": "[5]", "value": 66.7, "unit": "%"}, {"measurement": "PFS", "setting": "[6]", "value": 4.6, "unit": "months"}, {"measurement": "AUC0–10, geometric LS mean (95% CI)", "setting": "[7]; 125 mg", "value": "1658.8 (1017.1, 2705.3) h*nmol/L"}, {"measurement": "AUC0–10, geometric LS mean (95% CI)", "setting": "[7]; 150 mg", "value": "3228.0 (1698.9, 6133.3) h*nmol/L"}, {"measurement": "AUC0–10, geometric LS mean (95% CI)", "setting": "[7]; 300 mg", "value": "5340.4 (65.0, 439027.6) h*nmol/L"}, {"measurement": "Cmax", "setting": "[7]; 300 mg", "value": 819, "unit": "nM"}]}]}
